The values that follow are results of earlier work, collected in patent EP2505189B1, “Stabilizing alkylglycoside compositions and method thereof” (Aegis Therapeutics, LLC, priority 2006, dated 2007).

Data set [1] deals with isolated nasal cilia. The following applies: in vitro, cilia from 15 human donors.
In data set [2] the test system is nasal mucosa.
The conditions of data set [3]: in water.
Data set [4] deals with HIV-related peripheral neuropathy. The following applies: in vivo.
For data set [5] the following is noted: Phase I, 1987-1990.

As to benzalkonium chloride [BAC], the “effect on isolated nasal cilia” value in data set [1] is reported as “ciliotoxic”. For the same compound, the nasal irritation result in data set [2] (0.02% (Lange 2004)) is “no discernible negative effects whatsoever”. Also, in data set [2] (0.02% twice a day, two weeks of continual regular use (McMahon 1997)), the “effect on the nasal mucosal function” value was “no detectable effect on the nasal mucosal function”. In data set [2] (in vivo tests (Riechelmann 2004)), the saccharine transport time result is recorded as “did not alter saccharine transport time”. Moreover, the “damage to the nasal mucosa” value in data set [2] (prolonged use of topical formulations, 14 in vivo studies (Marple 2004)) is “no significant damage to the nasal mucosa”.

Regarding `CCCCCCCCCCCCCO[C@@H]1O[C@H](CO)[C@@H](OC2OC(CO)C(O)C(O)C2O)[C@H](O)[C@H]1O` (stereo in doubt) [Tridecyl maltoside], the CMC in data set [3] was 0.03 mM.

As for `CCCCCCCCO[C@@H]1O[C@H](CO)[C@@H](O[C@H]2O[C@H](CO)[C@@H](O)[C@H](O)[C@H]2O)[C@H](O)[C@H]1O` [Octyl maltoside], the CMC in data set [3] is recorded as 19.5 mM. As to `C[C@@H](N)C(=O)N[C@@H](CO)C(=O)N[C@H](C(=O)N[C@H](C(=O)N[C@H](C(=O)N[C@@H](CC(N)=O)C(=O)N[C@@H](Cc1ccc(O)cc1)C(=O)N[C@H](C(N)=O)[C@@H](C)O)[C@@H](C)O)[C@@H](C)O)[C@@H](C)O` [DAPTA, D-ala^1-Peptide T-amide], the adverse drug effects entry in data set [4] is on record as “No adverse drug effects were noted”. Further, the toxicity entry in data set [5] is given as “complete lack of toxicity”. In the case of `CCCCCCCCCCO[C@@H]1O[C@H](CO)[C@@H](O[C@H]2O[C@H](CO)[C@@H](O)[C@H](O)[C@H]2O)[C@H](O)[C@H]1O` [Decyl maltoside], the CMC in data set [3] is on record as 1.8 mM. Regarding `CCCCCCCCCCCCO[C@@H]1O[C@H](CO)[C@@H](O[C@H]2O[C@H](CO)[C@@H](O)[C@H](O)[C@H]2O)[C@H](O)[C@H]1O` [Dodecyl β -D-maltoside], in data set [3], the CMC is on record as 0.17 mM. Regarding Sucrose dodecanoate, the CMC in data set [3] is reported as 0.3 mM. Consider `CCCCCCCCCCCCCCO[C@@H]1O[C@H](CO)[C@@H](O[C@@H]2O[C@@H](CO)[C@H](O)[C@@H](O)[C@@H]2O)[C@H](O)[C@H]1O` (stereo in doubt) [Tetradecyl maltoside], for which, in data set [3], the CMC was 0.01 mM.
